Assay results as given in ChEMBL document CHEMBL1201862, “PubChem BioAssay data set” (2004).
Active and inactive are the calls of the source.

Experiments:
[1] = target: T1, Orexin/Hypocretin receptor type 1 (Homo sapiens, UniProt O43613); assay: Homogeneous Time Resolved Fluorescence (HTRF)-based cell-based high throughput dose response assay for antagonists of the orexin 1 receptor (OX1R; HCRTR1). [Related pubchem assays (depositor defined):AID434989, AID435008, AID463079, AID485270, AID492963, AID492964, AID492965, AID493232, AID504717, AID504718]; assay type: functional
T1 sequence (O43613 whole entry): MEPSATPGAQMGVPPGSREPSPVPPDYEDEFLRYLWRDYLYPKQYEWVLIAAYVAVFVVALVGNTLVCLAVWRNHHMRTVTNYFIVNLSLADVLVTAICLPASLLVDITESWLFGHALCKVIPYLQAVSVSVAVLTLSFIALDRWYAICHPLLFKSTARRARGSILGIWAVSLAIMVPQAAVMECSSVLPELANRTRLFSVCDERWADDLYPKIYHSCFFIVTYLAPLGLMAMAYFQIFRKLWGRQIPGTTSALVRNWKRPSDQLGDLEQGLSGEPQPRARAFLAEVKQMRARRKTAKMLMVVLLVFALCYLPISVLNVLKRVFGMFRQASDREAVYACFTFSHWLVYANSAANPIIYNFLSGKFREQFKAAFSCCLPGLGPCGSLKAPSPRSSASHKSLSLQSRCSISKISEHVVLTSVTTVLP

[2] = target: T1, Orexin/Hypocretin receptor type 1; assay: Fluorescence-based cell-based high throughput dose response assay for antagonists of the orexin 1 receptor (OX1R; HCRTR1). [Related pubchem assays (depositor defined):AID434989, AID435008, AID463079, AID485270, AID492963, AID492964, AID492965, AID493232, AID504717, AID504718]; assay type: functional
[3] = target: T2, Replicative DNA helicase DnaB (Mycobacterium tuberculosis, UniProt P9WMR3); assay: DnaB intein splicing inhibitors, dose response, biochemical, cell-free fluorescence (AID 449749); assay type: functional
T2 sequence (P9WMR3 whole entry): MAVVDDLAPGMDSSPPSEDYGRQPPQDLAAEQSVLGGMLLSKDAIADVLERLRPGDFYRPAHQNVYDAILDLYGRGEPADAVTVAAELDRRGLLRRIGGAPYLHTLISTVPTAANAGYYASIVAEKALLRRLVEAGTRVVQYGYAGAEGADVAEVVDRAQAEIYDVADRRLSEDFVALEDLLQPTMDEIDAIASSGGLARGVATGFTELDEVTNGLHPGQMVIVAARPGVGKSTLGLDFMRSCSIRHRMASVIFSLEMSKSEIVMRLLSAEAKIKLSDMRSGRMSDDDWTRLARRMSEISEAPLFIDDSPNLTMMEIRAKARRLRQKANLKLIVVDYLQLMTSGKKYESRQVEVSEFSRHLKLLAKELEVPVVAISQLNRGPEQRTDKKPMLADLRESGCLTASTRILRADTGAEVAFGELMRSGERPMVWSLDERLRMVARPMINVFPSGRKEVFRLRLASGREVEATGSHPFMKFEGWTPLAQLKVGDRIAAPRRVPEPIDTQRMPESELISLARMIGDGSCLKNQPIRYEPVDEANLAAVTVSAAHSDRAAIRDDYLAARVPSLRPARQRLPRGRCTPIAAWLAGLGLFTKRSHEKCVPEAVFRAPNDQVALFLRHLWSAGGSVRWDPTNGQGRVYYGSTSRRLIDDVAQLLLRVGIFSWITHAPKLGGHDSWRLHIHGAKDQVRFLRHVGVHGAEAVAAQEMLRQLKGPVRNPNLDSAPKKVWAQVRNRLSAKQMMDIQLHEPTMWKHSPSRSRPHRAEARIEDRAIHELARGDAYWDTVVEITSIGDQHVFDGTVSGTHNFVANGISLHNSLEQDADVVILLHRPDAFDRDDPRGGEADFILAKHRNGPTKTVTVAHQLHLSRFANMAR

[4] = (§1) Counterscreen for antagonists of the orexin 1 receptor (OX1R; HCRTR1): Fluorescence-based cell-based high throughput dose response assay to identify antagonists of the parental CHO cell line. [Related pubchem assays (depositor defined):AID434989, AID435008, AID463079, AID485270, AID492963, AID492964, AID492965, AID493232, AID504699, AID504701]; assay type: functional
CHO-K1 = assay: as §1, with “Homogeneous time resolved fluorescence (HTRF)-based” for “Fluorescence-based”, “cell-based” for “cell-based high throughput”, “CHO-K1” for “CHO”; assay type: functional; conditions: Cricetulus griseus;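 further: potency for inhibition of ATP-stimulated IP1 production as antagonists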
Protein RecA = target: T3, Protein RecA (Mycobacterium tuberculosis, UniProt P9WHJ3); assay: Fluorescence Cell-Free Homogeneous Dose Retest to Identify Inhibitors of RecA-Intein Splicing Activity. [Related pubchem assays (depositor defined):AID2097, AID2223, AID489010, AID492950]; assay type: functional
T3 sequence (P9WHJ3 whole entry): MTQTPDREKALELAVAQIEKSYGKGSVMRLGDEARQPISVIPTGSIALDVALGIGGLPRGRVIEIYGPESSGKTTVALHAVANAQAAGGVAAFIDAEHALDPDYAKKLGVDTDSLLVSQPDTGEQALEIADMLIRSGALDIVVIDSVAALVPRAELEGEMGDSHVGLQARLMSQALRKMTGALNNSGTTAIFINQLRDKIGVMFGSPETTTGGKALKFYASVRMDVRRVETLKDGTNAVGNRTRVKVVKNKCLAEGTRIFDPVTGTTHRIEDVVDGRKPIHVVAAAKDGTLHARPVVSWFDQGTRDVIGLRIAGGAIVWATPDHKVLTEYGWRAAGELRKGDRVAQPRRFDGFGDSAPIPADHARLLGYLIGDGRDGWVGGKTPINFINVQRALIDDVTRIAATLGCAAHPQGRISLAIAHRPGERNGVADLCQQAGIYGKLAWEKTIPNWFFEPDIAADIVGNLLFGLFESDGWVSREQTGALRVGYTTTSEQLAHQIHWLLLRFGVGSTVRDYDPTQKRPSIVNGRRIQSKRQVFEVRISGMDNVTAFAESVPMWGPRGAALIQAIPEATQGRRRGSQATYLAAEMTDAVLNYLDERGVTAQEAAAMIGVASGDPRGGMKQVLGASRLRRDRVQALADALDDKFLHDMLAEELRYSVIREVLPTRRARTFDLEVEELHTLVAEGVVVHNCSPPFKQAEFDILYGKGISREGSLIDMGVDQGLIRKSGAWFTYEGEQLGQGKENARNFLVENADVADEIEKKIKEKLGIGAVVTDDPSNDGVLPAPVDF

[5] = target: T4, Peroxisome proliferator-activated receptor gamma (Homo sapiens, UniProt P37231); assay: PPARg ligand-binding domain binders, dose response, PPARg partial agonist project, biochemical, TR-FRET, LanthaScreen (AID 504446)
T4 sequence (P37231 whole entry): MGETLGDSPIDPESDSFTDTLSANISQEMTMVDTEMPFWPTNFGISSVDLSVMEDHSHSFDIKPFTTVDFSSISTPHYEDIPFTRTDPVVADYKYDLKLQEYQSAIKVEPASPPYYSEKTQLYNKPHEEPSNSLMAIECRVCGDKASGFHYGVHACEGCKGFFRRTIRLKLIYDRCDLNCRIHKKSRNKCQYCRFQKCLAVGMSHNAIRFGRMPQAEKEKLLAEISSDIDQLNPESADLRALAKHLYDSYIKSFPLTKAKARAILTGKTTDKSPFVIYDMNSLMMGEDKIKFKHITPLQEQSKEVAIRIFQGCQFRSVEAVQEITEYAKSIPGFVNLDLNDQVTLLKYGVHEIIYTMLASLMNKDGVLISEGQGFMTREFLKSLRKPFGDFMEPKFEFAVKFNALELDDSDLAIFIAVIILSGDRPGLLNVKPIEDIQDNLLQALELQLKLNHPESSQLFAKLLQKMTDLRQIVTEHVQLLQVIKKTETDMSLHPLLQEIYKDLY

[6] = target: Peroxisome proliferator-activated receptor alpha (Homo sapiens, UniProt Q07869); assay: Late stage assay provider counterscreen for partial agonists of the peroxisome proliferator-activated receptor gamma (PPARg): Luminescence-based cell-based dose response assay for partial agonists of the peroxisome proliferator-activated receptor alpha (PPARA). [Related pubchem assays (depositor defined):AID1051, AID1300, AID1319, AID1679, AID1808, AID504446, AID504447, AID504452, AID504453, AID631]; assay type: functional
Peroxisome proliferator-activated receptor alpha, sequence (Q07869 whole entry): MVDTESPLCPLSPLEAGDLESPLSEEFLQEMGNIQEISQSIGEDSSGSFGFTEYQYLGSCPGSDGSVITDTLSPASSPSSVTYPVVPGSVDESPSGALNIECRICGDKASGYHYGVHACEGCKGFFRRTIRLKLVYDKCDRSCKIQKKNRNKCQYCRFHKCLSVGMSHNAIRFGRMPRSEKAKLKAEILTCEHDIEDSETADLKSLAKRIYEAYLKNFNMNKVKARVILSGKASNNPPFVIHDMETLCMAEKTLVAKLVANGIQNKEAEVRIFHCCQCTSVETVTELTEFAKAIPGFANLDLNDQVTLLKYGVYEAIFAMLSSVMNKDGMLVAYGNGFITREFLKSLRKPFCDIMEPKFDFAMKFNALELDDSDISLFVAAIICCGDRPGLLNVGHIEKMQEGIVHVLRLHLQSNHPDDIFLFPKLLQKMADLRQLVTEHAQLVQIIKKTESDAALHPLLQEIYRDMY

[7] = target: T4, Peroxisome proliferator-activated receptor gamma; assay: PPARg partial agonists, dose response, cell-based, luminescence, assay provider (AID 504447); assay type: functional
[8] = target: Signal transducer and activator of transcription 1-alpha/beta (Homo sapiens, UniProt P42224); assay: STAT3 inhibitors, late-stage profile, late-stage follow-up, cell-based, STAT1 panel, qPCR, cytotoxicity, panel member STAT1 Inhibition (AID 2078)
Signal transducer and activator of transcription 1-alpha/beta, sequence (P42224 whole entry): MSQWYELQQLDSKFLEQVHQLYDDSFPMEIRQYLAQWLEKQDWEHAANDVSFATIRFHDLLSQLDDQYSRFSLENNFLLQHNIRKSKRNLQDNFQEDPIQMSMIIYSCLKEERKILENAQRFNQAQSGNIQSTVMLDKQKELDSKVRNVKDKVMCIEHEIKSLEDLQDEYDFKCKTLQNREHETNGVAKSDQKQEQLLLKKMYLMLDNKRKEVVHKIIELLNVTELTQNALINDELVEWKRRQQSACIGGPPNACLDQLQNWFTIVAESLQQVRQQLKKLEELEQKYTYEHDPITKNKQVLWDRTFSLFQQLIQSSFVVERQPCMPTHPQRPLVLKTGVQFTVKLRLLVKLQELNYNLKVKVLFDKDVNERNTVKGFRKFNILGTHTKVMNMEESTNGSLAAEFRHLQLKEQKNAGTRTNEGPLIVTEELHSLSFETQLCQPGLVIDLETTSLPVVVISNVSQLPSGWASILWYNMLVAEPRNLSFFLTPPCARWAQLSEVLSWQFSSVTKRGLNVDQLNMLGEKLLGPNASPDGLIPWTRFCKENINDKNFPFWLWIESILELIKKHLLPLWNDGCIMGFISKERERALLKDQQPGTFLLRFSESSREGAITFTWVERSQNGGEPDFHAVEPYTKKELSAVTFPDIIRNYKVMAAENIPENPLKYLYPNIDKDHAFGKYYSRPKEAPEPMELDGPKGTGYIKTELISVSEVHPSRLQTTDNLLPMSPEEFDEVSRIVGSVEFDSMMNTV

[9] = target: Signal transducer and activator of transcription 3 (Homo sapiens, UniProt P40763); assay: STAT3 inhibitors, late-stage profile, late-stage follow-up, cell-based, STAT1 panel, qPCR, cytotoxicity, panel member STAT3 Inhibition (AID 2078)
Signal transducer and activator of transcription 3, sequence (P40763 whole entry): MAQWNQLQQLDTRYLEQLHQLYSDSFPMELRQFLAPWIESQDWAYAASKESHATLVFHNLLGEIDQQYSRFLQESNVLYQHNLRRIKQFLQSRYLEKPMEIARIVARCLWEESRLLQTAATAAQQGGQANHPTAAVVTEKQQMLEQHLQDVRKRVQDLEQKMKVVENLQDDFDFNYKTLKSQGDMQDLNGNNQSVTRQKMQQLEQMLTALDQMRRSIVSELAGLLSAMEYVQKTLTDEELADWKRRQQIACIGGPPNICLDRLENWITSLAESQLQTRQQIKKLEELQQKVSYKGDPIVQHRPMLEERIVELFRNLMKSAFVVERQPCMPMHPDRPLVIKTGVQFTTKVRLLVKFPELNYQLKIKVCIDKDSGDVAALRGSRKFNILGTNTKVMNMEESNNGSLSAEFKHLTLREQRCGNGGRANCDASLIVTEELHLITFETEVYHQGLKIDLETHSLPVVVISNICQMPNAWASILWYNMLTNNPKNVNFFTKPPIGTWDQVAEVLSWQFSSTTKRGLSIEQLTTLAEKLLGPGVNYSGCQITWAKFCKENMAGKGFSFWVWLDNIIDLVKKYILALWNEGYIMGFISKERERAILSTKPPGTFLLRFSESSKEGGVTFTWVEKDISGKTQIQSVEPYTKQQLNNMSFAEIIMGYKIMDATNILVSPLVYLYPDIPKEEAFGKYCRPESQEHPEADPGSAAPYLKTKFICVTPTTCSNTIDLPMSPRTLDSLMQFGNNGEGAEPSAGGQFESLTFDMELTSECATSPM

In the case of `COc1ccc(S(=O)(=O)Nc2c(O)ccc3ccccc23)cc1OC`, the IC50 [1] is reported as 3.15 µM (active), the IC50 [2] is reported as > 16.6 µM (inactive) and the AC50 [3] is reported as 5.46 µM (active). The IC50 [4] was > 49.8 µM (inactive), the IC50 (CHO-K1) was 27 µM (inactive) and the EC50 (Protein RecA) was 2.85 µM (active).

With `CCCCOC(=O)CCN1C(=O)/C(=C/c2ccccc2)SC1=S` the IC50 [5] was 3.2 µM (active), the EC50 [6] was 0.12 µM (active) and the EC50 [7] was 3.2 µM (active).

In the case of `O=C(c1ccc(F)cc1)C1CCN(c2ncnc3sccc23)CC1`, the IC50 [8] is reported as > 55.7 µM (inactive) and the IC50 [9] is reported as 1.68 µM (active).
